Experimental data: ChEMBL document CHEMBL1697731, “Cheminformatics analysis of assertions mined from literature that describe drug-induced liver injury in different species” (Chem Res Toxicol, 2010)

Tests used:
Hepatotoxicity [1] = assay: Literature-mined compound from Fourches et al multi-species drug-induced liver injury (DILI) dataset, effect in rodents; conditions: rodentia
Hepatotoxicity [2] = assay: Literature-mined compound from Fourches et al multi-species drug-induced liver injury (DILI) dataset, effect in humans; conditions: human
Hepatotoxicity [3] = assay: Literature-mined compound from Fourches et al multi-species drug-induced liver injury (DILI) dataset, effect in non-rodents

Row | Molecule | Hepatotoxicity (Hepatotoxicity [1]) | Hepatotoxicity (Hepatotoxicity [2]) | Hepatotoxicity (Hepatotoxicity [3]) | Hepatotoxicity (Hepatotoxicity [1]; Liver) | Hepatotoxicity (Hepatotoxicity [2]; Liver) | Hepatotoxicity (Hepatotoxicity [3]; Liver)
1 | Cc1c(N(C)C)c(=O)n(-c2ccccc2)n1C [AMINOPYRINE] | drug-induced liver injury reported | drug-induced liver injury reported | no drug-induced liver injury reported |  |  | 
2 | CCC(=O)[O-].[Na+] [SODIUM PROPIONATE] | drug-induced liver injury reported | no drug-induced liver injury reported | no drug-induced liver injury reported |  |  | 
3 | CCC1(c2ccc(N)cc2)CCC(=O)NC1=O (centres undefined) [AMINOGLUTETHIMIDE] | drug-induced liver injury reported | no drug-induced liver injury reported | no drug-induced liver injury reported |  |  | 
4 | C1CNCCN1 [PIPERAZINE] |  |  |  | drug-induced liver injury reported | no drug-induced liver injury reported | no drug-induced liver injury reported
5 | HEPARIN | drug-induced liver injury reported | drug-induced liver injury reported | drug-induced liver injury reported |  |  | 
6 | CC(c1cc2ccccc2s1)N(O)C(N)=O (centres undefined) [ZILEUTON] | drug-induced liver injury reported | drug-induced liver injury reported | no drug-induced liver injury reported |  |  | 
7 | CN(C)CCCC1(c2ccc(F)cc2)OCc2cc(C#N)ccc21 (centres undefined) [CITALOPRAM] | drug-induced liver injury reported | no drug-induced liver injury reported | no drug-induced liver injury reported |  |  | 
8 | CCOC(=O)CCC(=O)O[C@H]1[C@H](O[C@@H]2[C@@H](C)[C@H](O[C@H]3C[C@@](C)(OC)[C@@H](O)[C@H](C)O3)[C@@H](C)C(=O)O[C@H](CC)[C@@](C)(O)[C@H](O)[C@@H](C)C(=O)[C@H](C)C[C@@]2(C)O)O[C@H](C)C[C@@H]1N(C)C [ERYTHROMYCIN ETHYLSUCCINATE] | no drug-induced liver injury reported | drug-induced liver injury reported | no drug-induced liver injury reported |  |  | 
9 | CN1C(=O)NC(=O)C(C)(C2=CCCCC2)C1=O (centres undefined) [HEXOBARBITAL] | drug-induced liver injury reported | no drug-induced liver injury reported | no drug-induced liver injury reported |  |  | 
10 | O=C1NC(=O)C(c2ccccc2)(c2ccccc2)N1 [PHENYTOIN] |  |  |  | drug-induced liver injury reported | drug-induced liver injury reported | drug-induced liver injury reported
11 | O=c1c(-c2ccccc2)coc2ccccc12 [ISOFLAVONE] | no drug-induced liver injury reported | no drug-induced liver injury reported | drug-induced liver injury reported |  |  | 
12 | OCCOCCN1CCN(C(c2ccccc2)c2ccc(Cl)cc2)CC1 (centres undefined) [HYDROXYZINE] | no drug-induced liver injury reported | drug-induced liver injury reported | no drug-induced liver injury reported |  |  | 
13 | O=C(NCC1CCCCN1)c1cc(OCC(F)(F)F)ccc1OCC(F)(F)F (centres undefined) [FLECAINIDE] | no drug-induced liver injury reported | drug-induced liver injury reported | no drug-induced liver injury reported |  |  | 
14 | CC[C@@]1(O)C(=O)OCc2c1cc1n(c2=O)Cc2cc3ccccc3nc2-1 [CAMPTOTHECIN] | drug-induced liver injury reported | drug-induced liver injury reported | no drug-induced liver injury reported |  |  | 
15 | COc1cc(NS(C)(=O)=O)ccc1Nc1c2ccccc2nc2ccccc12 [AMSACRINE] | no drug-induced liver injury reported | drug-induced liver injury reported | no drug-induced liver injury reported |  |  | 
16 | Nc1ccn([C@@H]2O[C@H](CO)[C@@H](O)[C@@H]2O)c(=O)n1 [CYTARABINE] |  |  |  | drug-induced liver injury reported | drug-induced liver injury reported | no drug-induced liver injury reported
17 | C#C[C@]1(O)CC[C@H]2[C@@H]3CCc4cc(OC)ccc4[C@H]3CC[C@@]21C [MESTRANOL] | drug-induced liver injury reported | drug-induced liver injury reported | drug-induced liver injury reported |  |  | 
18 | Cc1cc2nc3c(=O)[nH]c(=O)nc-3n(C[C@H](O)[C@H](O)[C@H](O)CO)c2cc1C [RIBOFLAVIN] | no drug-induced liver injury reported | drug-induced liver injury reported | no drug-induced liver injury reported |  |  | 
19 | CCc1cc(C(N)=S)ccn1 [ETHIONAMIDE] |  |  |  | drug-induced liver injury reported | drug-induced liver injury reported | no drug-induced liver injury reported
20 | Clc1ccc2nsnc2c1NC1=NCCN1 [TIZANIDINE] |  |  |  | no drug-induced liver injury reported | drug-induced liver injury reported | no drug-induced liver injury reported
21 | COc1ccc(C(=O)N2CCN(c3ccc4c(c3)CCC(=O)N4)CC2)cc1OC [VESNARINONE] | drug-induced liver injury reported | drug-induced liver injury reported | no drug-induced liver injury reported |  |  | 
22 | N[C@@H](CN(O)N=O)C(=O)O [ALANOSINE] | drug-induced liver injury reported | no drug-induced liver injury reported | no drug-induced liver injury reported |  |  | 
23 | CCn1cc(C(=O)O)c(=O)c2cnc(N3CCNCC3)nc21 [PIPEMIDIC ACID] | no drug-induced liver injury reported | drug-induced liver injury reported | no drug-induced liver injury reported |  |  | 
24 | O=P1(N(CCCl)CCCl)NCCCO1 (centres undefined) [CYCLOPHOSPHAMIDE ANHYDROUS] |  |  |  | drug-induced liver injury reported | drug-induced liver injury reported | no drug-induced liver injury reported
25 | CC[C@]1(O)C[C@H]2CN(CCc3c([nH]c4ccccc34)[C@@](C(=O)OC)(c3cc4c(cc3OC)N(C=O)[C@H]3[C@@](O)(C(=O)OC)[C@H](OC(C)=O)[C@]5(CC)C=CCN6CC[C@]43[C@@H]65)C2)C1 [VINCRISTINE] | drug-induced liver injury reported | drug-induced liver injury reported | drug-induced liver injury reported |  |  | 
26 | C=C1[C@H](CO)[C@@H](O)C[C@@H]1n1cnc2c(=O)[nH]c(N)nc21.O | no drug-induced liver injury reported | drug-induced liver injury reported | no drug-induced liver injury reported |  |  | 
27 | O=C1C(CC[S+]([O-])c2ccccc2)C(=O)N(c2ccccc2)N1c1ccccc1 (centres undefined) [SULFINPYRAZONE] | no drug-induced liver injury reported | drug-induced liver injury reported | no drug-induced liver injury reported |  |  | 
28 | C[C@@H]1CN(c2c(F)c(N)c3c(=O)c(C(=O)O)cn(C4CC4)c3c2F)C[C@H](C)N1 [SPARFLOXACIN] | no drug-induced liver injury reported | drug-induced liver injury reported | no drug-induced liver injury reported |  |  | 
